Experimental data from patent US6867207B2, “IL-5 inhibiting 6-azauracil derivatives” (Janssen Pharmaceutica N.V., priority 1997, dated 2005).
Marks after values point to notes of the source that are not given here.

The compounds below were run on IL-5 production (assay: In vitro inhibition of IL-5 production in human blood (phytohemagglutinin-stimulated whole blood, ELISA)). Conditions: test dose 1×10^−5 M (values marked *), 48 hours.
Format: cell-based
Experimental: In Vitro Inhibition of IL-5 Production in Human Blood
Human Whole Blood Stimulation
Peripheral blood from healthy male donors was drawn into heparinized syringes (12.5 U heparin/ml). Blood samples were three-fold diluted in RMPI 1640 medium (Life Technologies, Belgium) supplemented with 2 mM L-glutamine, 100 U/ml penicillin and 100 μg/ml streptomycin, and 300 μl fractions were distributed in 24-well multidisc plates. Blood samples were preincubated (60 minutes at 37° C.) in a humidified 6% CO2-atmosphere with 100 μl of drug solvent (final concentration 0.02% dimethylsulfoxide in RPMI 1640) or with 100 μl of an appropriate dose of test compound before being stimulated by the addition of 100 μl of phytohemagglutinin HA17 (Murex, UK) at a final concentration of 2 μg/ml. After 48 hours, cell-free supernatant fluids were collected by centrifugation and stored at −70° C. until tested for the presence of IL-5.
IL-5 measurements were conducted as described in Van Wauwe et al. (1996, Inflamm Res, 45, 357-363) on page 358 using ELISA.
Table 9 lists the percentage inhibition of IL-5 production (column “% inh”) at a test dose of 1×10^−6 M, or in case the percentage inhibition is marked with an “*” 1×10^−5 M, the compounds of the present invention.

Row | SMILES | % inh. (percentage inhibition of IL-5 production), marked with *
1 | O=c1cnn(-c2ccc(C(Sc3nc4ccccc4[nH]3)c3ccc(Cl)cc3)c(Cl)c2)c(=O)[nH]1 (racemic) [Compound 52] | 57* %

Same assay, conditions: test dose 1×10^−6 M, 48 hours

Row | SMILES | % inh. (percentage inhibition of IL-5 production)
2 | O=c1cnn(-c2cc(Cl)c(C(c3ccc(Cl)cc3)c3nc(-c4c(Cl)cccc4Cl)cs3)c(Cl)c2)c(=O)[nH]1 (racemic) [Comp 264] | 79%
3 | Cc1nc(C(c2ccc(Cl)cc2)c2c(Cl)cc(-n3ncc(=O)[nH]c3=O)cc2Cl)sc1-c1ccccc1 (racemic) [Comp 248] | 91%
4 | O=c1cnn(-c2cc(Cl)c(C(c3ccc(Cl)cc3)c3csc(-c4cccc(F)c4)n3)c(Cl)c2)c(=O)[nH]1 (racemic) [Compound 368] | 88%
5 | Cc1ccnc(SC(c2ccc(Cl)cc2)c2ccc(-n3ncc(=O)[nH]c3=O)cc2Cl)n1 (racemic) [Compound 75] | 72%
6 | CN(C)c1ccnc(SC(c2ccc(Cl)cc2)c2c(Cl)cc(-n3ncc(=O)[nH]c3=O)cc2Cl)n1 (racemic) [Compound 355] | 83%
7 | O=c1cnn(-c2cc(Cl)c(C(c3ccc(Cl)cc3)c3nc(-c4cccc(F)c4F)cs3)c(Cl)c2)c(=O)[nH]1 (racemic) [Comp 337] | 96%
8 | Cn1ccnc1SC(c1ccc(Cl)cc1)c1ccc(-n2ncc(=O)[nH]c2=O)cc1Cl (racemic) [Compound 58] | 5%
9 | Cc1nc(-c2ccccc2F)c(C(c2ccc(Cl)cc2)c2c(Cl)cc(-n3ncc(=O)[nH]c3=O)cc2Cl)s1 (racemic) [Compound 152] | 87%
10 | CN(C)CCNC(=O)c1sc(C(c2ccc(Cl)cc2)c2c(Cl)cc(-n3ncc(=O)[nH]c3=O)cc2Cl)nc1-c1ccccc1.O (racemic) [Comp 312] | 57%
11 | NC(c1ccc(Cl)cc1)(c1nc2ccccc2s1)c1ccc(-n2ncc(=O)[nH]c2=O)cc1Cl (stereo not drawn) [Comp 416] | 79%
12 | CNC(=O)Cc1sc(C(c2ccc(Cl)cc2)c2c(Cl)cc(-n3ncc(=O)[nH]c3=O)cc2Cl)nc1-c1ccccc1 (racemic) [Comp 301] | 33%
13 | CCOC(=O)CSC(c1ccc(Cl)cc1)c1ccc(-n2ncc(=O)[nH]c2=O)cc1Cl (racemic) [Compound 76] | 2%
14 | O=C(Cc1sc(C(c2ccc(Cl)cc2)c2c(Cl)cc(-n3ncc(=O)[nH]c3=O)cc2Cl)nc1-c1ccccc1)N1CCOCC1 (racemic) [Comp 276] | 91%
15 | Cc1nc(SC(c2ccc(Cl)cc2)c2ccc(-n3ncc(=O)[nH]c3=O)cc2Cl)nc(O)c1CC1CC1 (racemic) [Compound 338] | −15%
16 | O=c1cnn(-c2cc(Cl)c(C(c3ccc(Cl)cc3)c3nnc(-c4cccs4)o3)c(Cl)c2)c(=O)[nH]1 (racemic) [Compound 166] | 87%
17 | Cc1cccc(-c2nc(C(c3ccc(Cl)cc3)c3c(Cl)cc(-n4ncc(=O)[nH]c4=O)cc3Cl)cs2)c1 (racemic) [Compound 372] | 86%
18 | CC(c1ccc(Cl)c(F)c1)(c1nc(-c2ccccc2)cs1)c1c(Cl)cc(-n2ncc(=O)[nH]c2=O)cc1Cl (racemic) [Comp 288] | 90%
19 | O=c1cnn(-c2cc(Cl)c(C(Sc3nc(-c4ccccc4)no3)c3ccc(Cl)cc3)c(Cl)c2)c(=O)[nH]1 (racemic) [Compound 408] | 88%
20 | Cc1sc(C(c2ccc(Cl)cc2)c2c(Br)cc(-n3ncc(=O)[nH]c3=O)cc2Br)nc1-c1ccccc1 (racemic) [Comp 330] | 94%
21 | Nc1ccc(SC(c2ccc(Cl)cc2)c2ccc(-n3ncc(=O)[nH]c3=O)cc2Cl)cc1 (racemic) [Compound 59] | 76%
22 | CN(C)Cc1nnc(C(c2ccc(Cl)cc2)c2c(Cl)cc(-n3ncc(=O)[nH]c3=O)cc2Cl)o1 (racemic) [Compound 198] | 46%
23 | COc1ccccc1-c1nnc(C(c2ccc(Cl)cc2)c2c(Cl)cc(-n3ncc(=O)[nH]c3=O)cc2Cl)o1 (racemic) [Compound 171] | 59%
24 | O=c1cnn(-c2ccc(C(c3ccc(Cl)cc3)c3ccccn3)c(Cl)c2)c(=O)[nH]1 (stereo not drawn) [Comp 114] | 40%

Row | SMILES | % inh. (percentage inhibition of IL-5 production)
25 | O=c1cnn(-c2cc(Cl)c(C(c3ccncc3)c3ccc(Cl)cc3)c(Cl)c2)c(=O)[nH]1 (stereo not drawn) [Comp 113] | 76%
26 | CCOCc1sc(C(c2ccc(Cl)cc2)c2c(Cl)cc(-n3ncc(=O)[nH]c3=O)cc2Cl)nc1-c1ccccc1 (racemic) [Comp 295] | 90%
27 | O=c1cnn(-c2ccc(C(c3ccc(Cl)cc3)c3nc(-c4ccccc4)sc3-c3ccccc3)c(Cl)c2)c(=O)[nH]1 (racemic) [Compound 373] | 40%
28 | COC(c1ccc(Cl)cc1)(c1nc2ccccc2s1)c1ccc(-n2ncc(=O)[nH]c2=O)cc1Cl (stereo not drawn) [Comp 418] | 47%
29 | O=C(c1ccccc1)c1sc(C(c2ccc(Cl)cc2)c2c(Cl)cc(-n3ncc(=O)[nH]c3=O)cc2Cl)nc1-c1ccccc1 (racemic) [Comp 273] | 77%
30 | Cc1nnc(C(c2ccc(Cl)cc2)c2c(Cl)cc(-n3ncc(=O)[nH]c3=O)cc2Cl)o1 (racemic) [Compound 162] | 63%
31 | COCCNC(c1ccc(Cl)cc1)c1ccc(-n2ncc(=O)[nH]c2=O)cc1Cl (racemic) [Compound 41] | 11%
32 | O=c1cnn(-c2cc(Cl)c(C(SC3=NCCS3)c3ccc(Cl)c(C(F)(F)F)c3)c(Cl)c2)c(=O)[nH]1 (stereo not drawn) [Compound 386] | 97%
33 | Cn1ccnc1C(O)(c1ccc(Cl)cc1)c1ccc(-n2ncc(=O)[nH]c2=O)cc1Cl.O (racemic) [Compound 120, (±)-2-[3-chloro[4-[(4-chlorophenyl)hydroxy(1-methyl-1H-imidazol-2-yl)methyl]phenyl]-1,2,4-triazine-3,5(2H,4H)-dione monohydrate] | 10%
34 | O=c1cnn(-c2ccc(C(c3ccc(Cl)cc3)c3noc(-c4ccccc4)n3)c(Cl)c2)c(=O)[nH]1 (racemic) [Comp 107] | 81%
35 | O=c1cnn(-c2cc(Cl)c(C(Sc3ncccn3)c3ccc(Cl)cc3)c(Cl)c2)c(=O)[nH]1 (single isomer, unassigned) [Compound 346] | 86%
36 | O=c1cnn(-c2cc(Cl)c(C(c3ccc(Cl)cc3)c3nnc(-c4ccc(Br)cc4)o3)c(Cl)c2)c(=O)[nH]1 (racemic) [Compound 168] | 80%
37 | CN(Cc1sc(C(c2ccc(Cl)cc2)c2c(Cl)cc(-n3ncc(=O)[nH]c3=O)cc2Cl)nc1-c1ccccc1)C1CCCCC1 (racemic) [Comp 334] | 75%
38 | CC(c1ccc(Cl)c(C(F)(F)F)c1)(c1nc(-c2ccccc2)c(-c2ccccc2)s1)c1c(Cl)cc(-n2ncc(=O)[nH]c2=O)cc1Cl (racemic) [Comp 237] | 82%
39 | CCc1sc(C(c2ccc(Cl)cc2)c2c(Cl)cc(-n3ncc(=O)[nH]c3=O)cc2Cl)nc1-c1cccc(F)c1 (racemic) [Comp 260] | 98%
40 | Nc1cc(N)nc(SC(c2ccc(Cl)cc2)c2ccc(-n3ncc(=O)[nH]c3=O)cc2Cl)n1 (racemic) [Compound 70] | 51%
41 | CN1CCN(c2ccnc(SC(c3ccc(Cl)cc3)c3c(Cl)cc(-n4ncc(=O)[nH]c4=O)cc3Cl)n2)CC1 (racemic) [Compound 345] | 88%
42 | O=c1cnn(-c2cc(Cl)c(C(Sc3nc4ccccc4s3)c3ccc(Cl)cc3)c(Cl)c2)c(=O)[nH]1 (stereo not drawn) [Compound 384] | 95%
43 | CN(C)C(=O)Cc1sc(C(c2ccc(Cl)cc2)c2c(Cl)cc(-n3ncc(=O)[nH]c3=O)cc2Cl)nc1-c1ccccc1 (racemic) [Comp 275] | 94%
44 | Cc1nc(-c2ccccc2)c(C(c2ccc(Cl)cc2)c2ccc(-n3ncc(=O)[nH]c3=O)cc2Cl)s1 (racemic) [Compound 134] | 95%
45 | CN(C)CCc1sc(C(c2ccc(Cl)cc2)c2c(Cl)cc(-n3ncc(=O)[nH]c3=O)cc2Cl)nc1-c1ccccc1 (racemic) [Comp 279] | 92%
46 | COc1ccccc1-c1nnc(C(c2ccc(Cl)cc2)c2c(Cl)cc(-n3ncc(=O)[nH]c3=O)cc2Cl)o1 (racemic) [Compound 174] | 83%

Same assay, conditions: test dose 1×10^−6 M, 48 hours, read-out: % inh. (percentage inhibition of IL-5 production)

Row | SMILES | inhibition at 1 µM
47 | O=c1cnn(-c2ccc(C(Sc3ccccn3)c3ccc(Cl)cc3)c(Cl)c2)c(=O)[nH]1 (racemic) [Compound 93, (±)-2-[3-chloro-4-[(4-chlorophenyl)(2-pyridinyl-thio)methyl]phenyl]-1,2,4-triazine-3,5(2H,4H)-dione] | 86%
48 | COC(c1ccc(Cl)cc1)(c1nccs1)c1ccc(-n2ncc(=O)[nH]c2=O)cc1Cl (racemic) [Compound 37, (±)-2-[3-chloro-4-[(4-chlorophenyl)-methoxy(2-thiazolyl)methyl]phenyl]-1,2,4-triazine-3,5(2H,4H)-dione] | 61%
